Experiment: HLB of surfactant
Type: physicochemical

Substance: sucrose distearate
- average HLB: 6.3

Substance: polyglyceryl-10 oleate
- average HLB: 12.5

— patent US20250073146A1, “MIXED SURFACTANT FOR PREPARING TRANSPARENT MICROEMULSION AND FINE NANOEMULSION, AND COSMETIC COMPOSITION PREPARED USING THE SAME” (BIOBEAUTECH Co., Ltd., priority 2023, published 2025)
